Assay results reported in paper PMC8639922, “KSHV transactivator-derived small peptide traps coactivators to attenuate MYC and inhibits leukemia and lymphoma cell growth” (Communications Biology, 2021).
Values joined by “and” are separate entries in the source; they are usually repeats but may differ in a detail not shown here. Equal values may be shown once. Square brackets hold non-standard residues; d marks the D form. Peptide text beside a SMILES is read from it. Orn = NCCC[C@H](N)C(=O)O; βAla = NCCC(=O)O

Test system: KSHV lytic gene expression in TREx-K-Rta BCBL-1 cells
Test: KSHV genome-wide qRT-PCR array
Assay type: cell-based
Conditions: D
Experimental: Because VGN50 is derived from the KSHV transactivator sequence, we next examined if VGN50 can inhibit KSHV lytic replication by competitively blocking the coactivator binding to K-Rta. To study this, we used the TREx-K-Rta BCBL-1 cell line, in which we can trigger the expression of exogenous Flag-tagged K-Rta in a doxycycline (Dox) inducible manner. TREx-K-Rta BCBL-1 cells were treated with […] VGN50 or mutant peptide, with or without Dox induction. We used approximately one-half of the IC50 concentration of VGN50 to treat the TREx-K-Rta BCBL-1 cells in order to avoid cell toxicity effects that would non-specifically decrease viral gene expression. KSHV gene expression was profiled with a KSHV genome-wide PCR array, using ribosomal rRNA for normalization and as an internal control. Fold activation relative to the uninduced Mut-P-treated sample (not induced: Dox -) was determined and a heatmap for KSHV lytic gene expression was generated (Fig. 3a). […] Immunoblotting was used to confirm the induction of lytic replication by Dox based on exogenous K-Rta protein (Flag-K-Rta) and the expression of two other KSHV lytic proteins (ORF57 and K-bZIP) along with actin and KSHV LANA protein as controls for equal loading and similar viral copy numbers in samples, respectively (Fig. 3b).
Fig. 3 Effects of VGN50 on KSHV gene transcription and VGN50 binding with SWI/SNF components. a KSHV qRT-PCR array analysis was used to study effects of VGN50 on KSHV gene transcription in a genome-wide manner. Uninduced (−; no doxycycline added) or dox-induced (+; 1 μg/ml) cells were treated with VGN50 or the mutant peptide (Mut-P) at a concentration of 24 μM. Samples were collected at 24 h post-treatment. Expression in uninduced cells was set as 1 for each viral gene and expression shown as fold activation relative to no-Dox samples. Selected cellular genes were also included in the PCR array for comparison. 18S ribosomal RNA was used as an internal control. b KSHV protein expression. Immunoblotting was performed to confirm both endogenous and exogenous K-Rta expression before (not induced) and after induction by Dox treatment (Dox-induced). Latent KSHV protein LANA and actin were used as controls for KSHV copy number (LANA) and loading (actin), respectively. Protein samples were collected 48-h post Dox incubation. c KSHV reactivation by VGN50 incubation. BCBL-1 and BC-1 cell lines were treated with VGN50 (16 μM concentration) and total RNA harvested at 24 h post treatment. KSHV PAN RNA expression was examined by qRT-PCR and relative expression over 18S rRNA is shown. Data are presented as mean ± SD (n = 3). d Purification of recombinant SWI/SNF components. SDS-PAGE analysis of five SWI/SNF components individually prepared from baculovirus-infected Sf9 cells. e A schematic illustration of ELISA assay to evaluate VGN50 and SWI/SNF interaction. f Analysis of VGN50 binding to SWI/SNF components by ELISA. Increasing concentrations of biotin-conjugated VGN50 or Mut-P were incubated in duplicate in an ELISA plate coated with each SWI/SNF component. Peptide binding measured as OD values at 450 nm are shown. Mean OD values were compared between the VGN50 and Mut-P in each concentration using unpaired t-test. **p < 0.01, *p < 0.05, NS no significance. Data are presented as mean ± SD with duplicated samples and repeated three times with different purified protein preps.

[1] = values are 2^-ddCT (fold vs MT ND)
[2] = values are 2^-ddCT (fold vs MT ND), listed as MT

CC(C)C[C@H](NC(=O)CCNC(=O)[C@H](CCCNC(=N)N)NC(=O)[C@H](CCCNC(=N)N)NC(=O)[C@H](CCCNC(=N)N)NC(=O)[C@H](CCCN)NC(=O)[C@H](CCCNC(=N)N)NC(=O)[C@H](CCCNC(=N)N)NC(=O)[C@H](CCCCN)NC(=O)[C@H](CCCCN)NC(=O)[C@H](N)CCCNC(=N)N)C(=O)N[C@@H](CO)C(=O)N[C@@H](CO)C(=O)N[C@@H](C)C(=O)N[C@@H](C)C(=O)N[C@@H](C)C(=O)NCC(=O)N[C@@H](CC(C)C)C(=O)N[C@@H](Cc1ccc(O)cc1)C(=O)N[C@@H](CCC(N)=O)C(=O)N[C@@H](CC(C)C)C(=O)N[C@@H](CC(=O)O)C(=O)N[C@H](C(=O)O)[C@@H](C)O [Mt-P] (H-[dR]KKRR[Orn]RRR[βAla]LSSAAAGLYQLDT-OH; N-terminus and C-terminus assumed)
IL- 6 ddCT (vs 18s and MT ND): -2.234
IL- 10 ddCT (vs 18s and MT ND): 0.213
ORF21 fold vs MT ND (headed ddCT): 10.438
ORF 50 k-kta fold vs MT ND (headed ddCT): 158.652
k 2 fold vs MT ND (headed ddCT): 197.507
K 9 fold vs MT ND (headed ddCT) (listed as MT): 11.999 and 11.9991
K 10 fold vs MT ND (headed ddCT) (listed as MT): 11.665 and 11.6651
ORF2 fold vs MT ND (headed ddCT) (listed as MT): 35.093 and 35.0927
ORF4 fold vs MT ND (headed ddCT) (listed as MT): 46.543 and 46.5425
ORF6 fold vs MT ND (headed ddCT) (listed as MT): 13.632 and 13.6318
ORF7 fold vs MT ND (headed ddCT) (listed as MT): 12.162 and 12.1623
ORF8 fold vs MT ND (headed ddCT) (listed as MT): 10.223 and 10.2233
ORF9 fold vs MT ND (headed ddCT) (listed as MT): 6.076
ORF11 fold vs MT ND (headed ddCT) (listed as MT): 18.177 and 18.1766
ORF16 fold vs MT ND (headed ddCT) (listed as MT): 8.699 and 8.6991
ORF17 fold vs MT ND (headed ddCT) (listed as MT): 6.815
ORF18 fold vs MT ND (headed ddCT) (listed as MT): 4.417
ORF19 fold vs MT ND (headed ddCT) (listed as MT): 8.897
ORF 20 fold vs MT ND (headed ddCT) (listed as MT): 5.481
ORF22.1 fold vs MT ND (headed ddCT) (listed as MT): 6.976
ORF23 fold vs MT ND (headed ddCT) (listed as MT): 4.718
ORF24 fold vs MT ND (headed ddCT) (listed as MT): 6.384
ORF 25 fold vs MT ND (headed ddCT) (listed as MT): 4.629
ORF26 fold vs MT ND (headed ddCT) (listed as MT): 6.591
ORF27 fold vs MT ND (headed ddCT) (listed as MT): 19.313 and 19.3133
ORF28 fold vs MT ND (headed ddCT) (listed as MT): 5.046
ORF29 fold vs MT ND (headed ddCT) (listed as MT): 22.418 and 22.4181
ORF30 fold vs MT ND (headed ddCT) (listed as MT): 5.617
ORF31 fold vs MT ND (headed ddCT) (listed as MT): 9.188
ORF32 fold vs MT ND (headed ddCT) (listed as MT): 3.227
ORF33 fold vs MT ND (headed ddCT) (listed as MT): 10.461 and 10.4609
ORF34 fold vs MT ND (headed ddCT) (listed as MT): 6.891
ORF35 fold vs MT ND (headed ddCT) (listed as MT): 7.441
ORF36 fold vs MT ND (headed ddCT) (listed as MT): 21.557 and 21.5571
ORF37 fold vs MT ND (headed ddCT) (listed as MT): 14.520 and 14.5196
ORF38 fold vs MT ND (headed ddCT) (listed as MT): 28.906 and 28.9062
ORF39 fold vs MT ND (headed ddCT) (listed as MT): 11.635 and 11.6345
ORF40 fold vs MT ND (headed ddCT) (listed as MT): 4.674
ORF41 fold vs MT ND (headed ddCT) (listed as MT): 21.065 and 21.0654
ORF42 fold vs MT ND (headed ddCT) (listed as MT): 3.993
ORF43 fold vs MT ND (headed ddCT) (listed as MT): 8.726
ORF44 fold vs MT ND (headed ddCT) (listed as MT): 33.337 and 33.3373
ORF45 fold vs MT ND (headed ddCT) (listed as MT): 53.618 and 53.6182
ORF 46 fold vs MT ND (headed ddCT) (listed as MT): 6.457
ORF 47 fold vs MT ND (headed ddCT) (listed as MT): 62.278 and 62.2783
ORF48 fold vs MT ND (headed ddCT) (listed as MT): 31.118 and 31.1177
ORF49 fold vs MT ND (headed ddCT) (listed as MT): 16.390 and 16.3905
ORF52 fold vs MT ND (headed ddCT) (listed as MT): 27.531 and 27.5312
ORF53 fold vs MT ND (headed ddCT) (listed as MT): 16.215 and 16.2146
ORF54 fold vs MT ND (headed ddCT) (listed as MT): 10.079 and 10.0788
ORF55 fold vs MT ND (headed ddCT) (listed as MT): 10.827 and 10.8272
ORF56 fold vs MT ND (headed ddCT) (listed as MT): 13.04
ORF57 fold vs MT ND (headed ddCT) (listed as MT): 22.128 and 22.1283
ORF70 fold vs MT ND (headed ddCT) (listed as MT): 15.204 and 15.2038
T1.5 ori RNA fold vs MT ND (headed ddCT) (listed as MT): 26.465 and 26.4646
k 1 fold vs MT ND (headed ddCT) (listed as MT): 7.768
k 3 fold vs MT ND (headed ddCT) (listed as MT): 12.567 and 12.5669
k 4 fold vs MT ND (headed ddCT) (listed as MT): 33.463 and 33.4629
k 6 -2 fold vs MT ND (headed ddCT) (listed as MT): 13.375 and 13.3749
k 7 real fold vs MT ND (headed ddCT) (listed as MT): 14.740 and 14.7397
pan set 2 fold vs MT ND (headed ddCT) (listed as MT): 11.431 and 11.4312
EGFP ddCT (vs 18s and MT ND), second block [1]: 2.182
IL- 6 ddCT (vs 18s and MT ND), second block [1]: 4.704
ORF67 ddCT (vs 18s and MT ND), second block [1]: 1.460
ORF68 ddCT (vs 18s and MT ND), second block [1]: 3.433
ORF74 ddCT (vs 18s and MT ND), second block [1]: 1.662
k 14 ddCT (vs 18s and MT ND), second block [1]: 1.713
IL- 10 ddCT (vs 18s and MT ND), second block [2]: 0.863 and 0.8629
K 11 ddCT (vs 18s and MT ND), second block [2]: 85.514 and 85.5135
K 12 ddCT (vs 18s and MT ND), second block [2]: 1.587
K 15 ddCT (vs 18s and MT ND), second block [2]: 1.316
ORF 58 ddCT (vs 18s and MT ND), second block [2]: 7.125
ORF59 ddCT (vs 18s and MT ND), second block [2]: 3.052
ORF60 ddCT (vs 18s and MT ND), second block [2]: 1.439
ORF61 ddCT (vs 18s and MT ND), second block [2]: 2.555
ORF 62 ddCT (vs 18s and MT ND), second block [2]: 2.303
ORF63 ddCT (vs 18s and MT ND), second block [2]: 4.399
ORF64 ddCT (vs 18s and MT ND), second block [2]: 5.462 and 5.4617
ORF65 ddCT (vs 18s and MT ND), second block [2]: 2.091
ORF66 ddCT (vs 18s and MT ND), second block [2]: 6.232
ORF69 ddCT (vs 18s and MT ND), second block [2]: 3.398
ORF71 ddCT (vs 18s and MT ND), second block [2]: 6.849
ORF72 ddCT (vs 18s and MT ND), second block [2]: 2.075
ORF 73 ddCT (vs 18s and MT ND), second block [2]: 1.648
ORF75 ddCT (vs 18s and MT ND), second block [2]: 1.427
T0.7 #1 ddCT (vs 18s and MT ND), second block [2]: 5.275
T0.7 #2 ddCT (vs 18s and MT ND), second block [2]: 2.071
T1.5 #2 ddCT (vs 18s and MT ND), second block [2]: 13.571 and 13.5709
VIRF3 ddCT (vs 18s and MT ND), second block [2]: 5.775
